For experiment [1], the target named is T1, human dopamine D3 receptors (Homo sapiens, UniProt P35462).
T1 construct: expressed in transfected cells; membranes
Put plainly: Dopamine D3 receptor binding, [125I]-iodosulpride displacement. The following applies: for Ki: membranes of HEK-293 cells stably expressing human D3 receptor, 0.1 nM [125I]-iodosulpride, 25° C., 60 minutes; for Ki(D2)*/Ki(D3)*: selectivity ratio of receptor binding constants D2 versus D3. As to the method: (§1) The substance to be tested was either dissolved in methanol/Chremophor® (BASF-AG) or in dimethyl sulfoxide and then diluted with water to the desired concentration.
(§2) Each assay mixture was run in triplicate.
The incubation buffer contained 50 mM tris, 120 mM NaCl, 5 mM KCl, 2 mM CaCl2, 2 mM MgCl2 and 0.1% bovine serum albumin, 10 μM quinolone and 0.1% ascorbic acid (prepared fresh daily). The buffer was adjusted to pH 7.4 with HCl.
(§3) Measurement and Analysis:
(§4) After having been incubated at 25° C. for 60 minutes, the assay mixtures were filtered through a Whatman GF/B glass fiber filter under vacuum using a cell collecting device. The filters were transferred to scintillation viols using a filter transfer system. After 4 ml of Ultima Gold® (Packard) have been added, the samples were shaken for one hour and the radioactivity was then counted in a Beta-Counter (Packard, Tricarb 2000 or 2200CA). The cpm values were converted into dpm using a standard quench series and the program belonging to the instrument.
(§5) The inhibition curves were analyzed by means of iterative nonlinear regression analysis using the Statistical Analysis System (SAS) which is similar to the “LIGAND” program described by Munson and Rodbard.
(§6) The results of the receptro binding studies are expressed as receptor binding constants Ki(D2) and Ki(D3), respectively, as herein before described, and given in table 2.

The target of experiment [2] is T2, human dopamine D2L receptors (long isoform) (Homo sapiens, UniProt P14416).
T2 construct: expressed in transfected cells; membranes
Put plainly: Dopamine D2L receptor binding, [125I] iodospiperone displacement. The following applies: membranes of HEK-293 cells stably expressing human D2L receptor; 0.01 nM [125I] iodospiperone; 25° C., 60 minutes; read-out: Ki(D2)*. The procedure: as §1, §2
The incubation buffer contained 50 mM tris, 120 mM NaCl, 5 mM KCl, 2 mM CaCl2, 2 mM MgCl2 and 0.1% bovine serum albumin. The buffer was adjusted to pH 7.4 with HCl.
as §3, §4, §5, §6

The structures appear in SMILES notation.

T2 sequence (P14416 whole entry, canonical isoform): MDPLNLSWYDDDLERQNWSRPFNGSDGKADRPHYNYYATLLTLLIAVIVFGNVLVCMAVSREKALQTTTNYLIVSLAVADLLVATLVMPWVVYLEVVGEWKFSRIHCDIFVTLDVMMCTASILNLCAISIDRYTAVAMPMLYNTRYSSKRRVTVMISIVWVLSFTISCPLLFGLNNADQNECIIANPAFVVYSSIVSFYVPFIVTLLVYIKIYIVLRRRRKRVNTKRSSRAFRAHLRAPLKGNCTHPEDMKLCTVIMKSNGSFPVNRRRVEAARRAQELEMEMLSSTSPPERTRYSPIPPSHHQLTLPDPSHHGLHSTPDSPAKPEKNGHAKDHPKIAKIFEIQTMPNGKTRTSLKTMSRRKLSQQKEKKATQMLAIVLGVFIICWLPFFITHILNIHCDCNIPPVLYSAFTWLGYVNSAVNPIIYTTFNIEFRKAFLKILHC
T1 sequence (P35462 whole entry): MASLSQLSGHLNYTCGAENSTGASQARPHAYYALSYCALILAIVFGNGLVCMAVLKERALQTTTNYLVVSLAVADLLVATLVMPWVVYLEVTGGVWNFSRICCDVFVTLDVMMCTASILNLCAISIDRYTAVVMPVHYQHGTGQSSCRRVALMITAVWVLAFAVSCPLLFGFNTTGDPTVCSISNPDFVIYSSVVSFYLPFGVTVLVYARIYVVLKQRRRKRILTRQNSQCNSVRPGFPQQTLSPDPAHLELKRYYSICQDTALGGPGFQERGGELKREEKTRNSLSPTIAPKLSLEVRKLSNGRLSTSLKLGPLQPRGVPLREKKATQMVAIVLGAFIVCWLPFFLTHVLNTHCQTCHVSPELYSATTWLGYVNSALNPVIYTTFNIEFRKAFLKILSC

As usually defined, the Ki is a measure of affinity in units of concentration, obtained from inhibition or displacement. Regarding `C=CCN1CCC[C@H]2c3ccc(NS(=O)(=O)c4ccc(C(C)C)cc4)cc3CC[C@@H]21` [Example 19, N-((4aS,10bS)-4-Allyl-1,2,3,4,4a,5,6,10b-octahydro-benzo[f]quinolin-8-yl)-4-isopropylbenzenesulfonamide], in experiment [1], the Ki came to 2.5 nM and the “Ki(D2)*/Ki(D3)*” value is recorded as 21. For the same compound, the Ki in experiment [2] turned out to be 51 nM.
With `CCCN1CCC[C@@H]2Cc3cc(NS(=O)(=O)c4ccc(C(C)C)cc4)ccc3C[C@H]21` (relative stereo) [Example 23, trans-4-Isopropyl-N-(1-propyl-1,2,3,4,4a,5,10,10a-octahydro-benzo[g]quinolin-7-yl)benzenesulfonamide], in experiment [1], the Ki amounted to 2.3 nM and the “Ki(D2)*/Ki(D3)*” value was found to be 50. Besides, the Ki in experiment [2] is 116 nM.
For `CCCN(CCC)[C@@H]1CCc2cc(NS(=O)(=O)c3ccc(C(C)C)cc3)ccc2C1.Cl` [Example 29, N—((R)-6-Dipropylamino-5,6,7,8-tetrahydro-naphthalen-2-yl)-4-isopropyl-benzenesulfonamide, hydrochloride], in that order: 0.37 nM, 4 and 1.39 nM.
Taken in the same sequence, the figures for `CCCN[C@H]1CCc2cc(NS(=O)(=O)c3ccc([C@H](C)C(F)(F)F)cc3)ccc2C1` [Example 42, N—((S)-6-Propylamino-5,6,7,8-tetrahydro-naphthalen-2-yl)-4-((S)-2,2,2-trifluoro-1-methylethyl)-benzenesulfonamide] were 1.95 nM, 263 and 514 nM.
For `CCCN(CCC)[C@H]1CCc2cc(NS(=O)(=O)c3ccc(C(C)C)cc3)ccc2C1.Cl` [Example 30, N—((S)-6-Dipropylamino-5,6,7,8-tetrahydro-naphthalen-2-yl)-4-isopropylbenzenesulfonamide, hydrochloride], in that order: 0.39 nM, 29 and 11.3 nM.
With `CCCN[C@H]1CCc2cc(NS(=O)(=O)c3ccc(N4CC[C@@H](F)C4)cc3)ccc2C1` [Example 44, 4-((R)-3-Fluoro-pyrrolidin-1-yl)-N—((S)-6-propylamino-5,6,7,8-tetrahydro-naphthalen-2-yl)benzenesulfonamide], the Ki in experiment [1] turned out to be 0.62 nM; in experiment [2], 258 nM. Besides, in experiment [1], the “Ki(D2)*/Ki(D3)*” value is on record as 416.

Values taken from patent US8969552B2, “Arylsulfonylmethyl or arylsulfonamide substituted aromatic compounds suitable for treating disorders that respond to modulation of the dopamine D3 receptor” (AbbVie Deutschland GmbH & Co. KG, priority 2004, dated 2015).
